The conditions of data set [1]: 298.15 K; 101.33 kPa; Liquid.
Data set [2] is described as follows: xn = mol fraction of the nth substance listed. The note with it: 298.15 K, 101.3 kPa, Liquid.

Numbers after ± are expanded uncertainties.

As usually defined, the mass density is the mass of a sample divided by its volume. On to `OCC(F)(F)F` [2,2,2-trifluoroethanol], for which, in data set [1], the mass density was 1382.4 ± 1.5 kg/m3.

Regarding `OCC(F)(F)F` [2,2,2-trifluoroethanol] + CC(C)OC(C)C, the mass density in data set [2] (x2 = 0.0511) was 1320 ± 1 kg/m3; in data set [2] (x2 = 0.1069), 1258.5 ± 0.9 kg/m3; in data set [2] (x2 = 0.1922), 1175.7 ± 0.7 kg/m3; in data set [2] (x2 = 0.2483), 1127.3 ± 0.6 kg/m3; in data set [2] (x2 = 0.2968), 1088.9 ± 0.5 kg/m3; in data set [2] (x2 = 0.4021) it was 1013.8 ± 0.4 kg/m3. In addition, the mass density in data set [2] (x2 = 0.4927) is 957.1 ± 0.5 kg/m3; in data set [2] (x2 = 0.6059) it was 894 ± 0.5 kg/m3; in data set [2] (x2 = 0.6997), 846.9 ± 0.5 kg/m3; in data set [2] (x2 = 0.8024), 799.8 ± 0.6 kg/m3; in data set [2] (x2 = 0.9113), 754.2 ± 0.6 kg/m3.

Consider `FC(F)(F)c1ccccc1` [(trifluoromethyl)benzene], for which the mass density in data set [1] is on record as 1182.18 ± 0.48 kg/m3.

For `FC(F)(F)c1ccccc1` [(trifluoromethyl)benzene] + CCO, the mass density in data set [2] (x1 = 0.1051) is recorded as 864 ± 0.4 kg/m3; in data set [2] (x1 = 0.1999), 921.7 ± 0.3 kg/m3; in data set [2] (x1 = 0.2454), 945.8 ± 0.3 kg/m3; in data set [2] (x1 = 0.3059), 975.2 ± 0.2 kg/m3; in data set [2] (x1 = 0.4057) it was 1017.5 ± 0.2 kg/m3; in data set [2] (x1 = 0.5022), 1052.8 ± 0.3 kg/m3. For the same compound, the mass density in data set [2] (x1 = 0.5855) is given as 1079.7 ± 0.3 kg/m3; in data set [2] (x1 = 0.7052) it was 1113.7 ± 0.4 kg/m3; in data set [2] (x1 = 0.7886) it was 1134.9 ± 0.4 kg/m3; in data set [2] (x1 = 0.9032), 1161.5 ± 0.4 kg/m3.

`CC(C)OC(C)C` [diisopropyl ether]: the mass density in data set [1] came to 719.17 ± 0.96 kg/m3.

For `CC(C)OC(C)C` [diisopropyl ether] + CCO, the mass density in data set [2] (x1 = 0.1072) came to 774.5 ± 0.5 kg/m3; in data set [2] (x1 = 0.2007), 766.1 ± 0.5 kg/m3; in data set [2] (x1 = 0.3086), 757.6 ± 0.5 kg/m3; in data set [2] (x1 = 0.403), 751 ± 0.5 kg/m3; in data set [2] (x1 = 0.4811) it was 746 ± 0.6 kg/m3; in data set [2] (x1 = 0.6142) it was 738.3 ± 0.6 kg/m3. Also, the mass density in data set [2] (x1 = 0.6993) came to 733.8 ± 0.6 kg/m3; in data set [2] (x1 = 0.7432), 731.7 ± 0.6 kg/m3; in data set [2] (x1 = 0.7863) it was 729.6 ± 0.6 kg/m3; in data set [2] (x1 = 0.8965), 724.4 ± 0.6 kg/m3; in data set [2] (x1 = 0.9129) it was 723.6 ± 0.6 kg/m3.

In the case of `CCO` [ethanol], the mass density in data set [1] worked out at 785.6 ± 0.24 kg/m3.

For the origin of these results see the NIST ThermoML archive (doi:10.1016/j.jct.2006.09.006).
